Results from patent US9724331B2, “Use of maleimide derivatives for preventing and treating leukemia” (CENTOGENE AG, priority 2012, dated 2017).
Entries after “also recorded” stand apart in the source; their conditions may differ.

Assays:
Type in all cases: cell-based, human
[1] = tested on: PI3K/Akt and Wnt/β-catenin pathway in SEM cells; assay: Western blot, PI3K/Akt and Wnt/β-catenin pathway
Procedure: (§1) After treatment with PDA-66 and DMSO, respectively, cells were lyzed and protein expression analyzed with Western blot.
(§2) Protein extraction and Western blot was performed as described above. Following polyclonal antibodies were used: rabbit anti-cleaved caspase 3, rabbit anti-caspase 3, rabbit anti-cleaved PARP, rabbit anti-PARP, rabbit anti-cleaved caspase 7, rabbit anti-caspase 7, rabbit anti-pAktThr308, rabbit anti-pAktSer473, rabbit anti-Akt, rabbit anti-β-catenin, rabbit anti-pGSK3βSer9, rabbit anti-GSK3β, rabbit anti-p4EBP-1Ser65 and rabbit anti-4EBP-1 (all Cell Signaling Frankfurt/Main, Germany). Blots were incubated with mouse anti-GAPDH antibody (Invitrogen, Carlsbad, USA) as loading control.

[2] = tested on: PI3K/Akt and Wnt/β-catenin pathway in Molt-4 cells; assay: Western blot, PI3K/Akt and Wnt/β-catenin pathway; settings: incubation of 4 and 24 h
Procedure: as §1, §2

[3] = tested on: PI3K/Akt and Wnt/β-catenin pathway in RS4;11 cells; assay: Western blot, PI3K/Akt and Wnt/β-catenin pathway; settings: incubation of 4 and 24 h
Procedure: as §1, §2

[4] = tested on: PI3K/Akt and Wnt/β-catenin pathway in Jurkat cells; assay: Western blot, PI3K/Akt and Wnt/β-catenin pathway
Procedure: as §1, §2

SEM cells [5] = assay: Proliferation, cell counts by trypan blue staining
Procedure: (§3) The human B-ALL cell lines SEM, RS4;11 and the human T-ALL cell lines Jurkat and Molt-4 were purchased from DSMZ (Germany) and cultured according to manufacturer's protocol. The corresponding medium was supplemented with 10% heat-inactivated fetal bovine serum (PAA, Pasching, Austria) and 1% penicillin and streptomycin (Biochrom AG, Berlin, Germany). The Molt-4 cells were cultured with medium supplemented with 20% heat-inactivated fetal bovine serum. All cells were maintained at 37° C. in 5% CO2. Cells (5×10^5/well) were seeded in 24 well plates (Nunc, Langenselbold, Germany) and incubated for up to 72 h with PDA-66. Treated cells were harvested after 4, 24, 48 and 72 h and used for further analyses.
(§4) Cell counts were determined using the trypan blue staining. Metabolic activity was analyzed by using tetrazolium compound WST-1 (Roche, Mannheim, Germany). In brief, triplicates of cells (5×10^4/well) were seeded in 96 well plates, treated with PDA-66 and incubated with 15 μl WST-1 for up to 4 h. The mitochondrial dehydrogenases reduce WST-1 to soluble formazan and cause a change of color, which correlates with the amount of metabolically active cells. Absorbance at 450 nm and a reference wavelength at 620 nm were determined by an ELISA Reader (Anthos, Krefeld, Germany). The absorbance of culture medium with supplemented WST-1 in the absence of cells was used as background control.
(§5) The influence of PDA-66 on proliferation in ALL cell lines SEM, RS4;11, Jurkat and Molt-4 was analyzed by incubation with different concentrations of the drug (0.001 μM to 10 μM). Metabolic activity was determined using WST-1 assay. […] Results are summarized in FIG. 2, whereby the individual nine bars for each set of experiments represent, from left to right, DMSO, 0.001 μM, 0.01 μM, 0.1 μM, 0.25 μM, 0.5 μM, 1.0 μM, 5 μM and 10 μM. After 48 h of incubation an inhibition of proliferation could be observed, but was more distinct after 72 h.

Molt-4 cells [6] = assay: Proliferation, cell counts by trypan blue staining
Procedure: as §3, §4, §5

Jurkat cells [7] = assay: Proliferation, cell counts by trypan blue staining
Procedure: as §3, §4, §5

RS4;11 cells [8] = assay: Proliferation, cell counts by trypan blue staining
Procedure: as §3, §4, §5

SEM cells [9] = assay: Metabolic activity, WST-1 assay
Procedure: as §3, §4, §5

Molt-4 cells [10] = assay: Metabolic activity, WST-1 assay; settings: 0.5 μM PDA-66, 72 h, mean±SD
Procedure: as §3, §4, §5

Jurkat cells [11] = assay: Metabolic activity, WST-1 assay
Procedure: as §3, §4, §5

RS4;11 cells [12] = assay: Metabolic activity, WST-1 assay; settings: 0.5 μM PDA-66, 72 h, mean±SD
Procedure: as §3, §4, §5

SEM cells [13] = assay: Cell cycle analysis, propidium iodide staining, flow cytometry
Procedure: (§6) After treatment cells were harvested and washed twice in PBS. Cells were fixed with 70% ethanol and incubated with 1 mg/ml Ribonuclease A (Sigma-Aldrich, St. Louis, USA) for 30 min at 37° C. After washing the cells twice in PBS, they were stained with PI (50 μg/ml) and DNA content was determined by flow cytometry. All cell lines were incubated with PDA-66 and cell cycle distribution was determined using Propidium iodide staining.
(§7) The treatment with PDA-66 influenced the four cell lines differently. […] G2 arrest could be detected in RS4;11 and Molt-4 cells after 48 h of treatment. Treatment of Jurkat cells induced a decrease of cells in G0/G1 phase in favor of cells in S phase.

Molt-4 cells [14] = assay: as above
Procedure: as §6, §7

Jurkat cells [15] = assay: as above; settings: 1 μM PDA-66, mean±SD
Procedure: as §6, §7

RS4;11 cells [16] = assay: as above
Procedure: as §6, §7

[17] = SEM cells shown exemplarily (FIG. 6A)
[18] = SEM cells, incubation of 4 and 24 h
[19] = 0.5 μM PDA-66, 72 h, vs. DMSO control
[20] = 0.5 μM or more, seeded cells 5×10^5

SMILES: CC(=O)c1ccc(C2=C(c3c(C)[nH]c4ccccc34)C(=O)N(C)C2=O)cc1 [PDA-66, 3-(4-Acetylphenyl)-1-methyl-4-(2-methyl-1H-indol-3-yl)-1H-pyrrole-2,5-dione]
- expression of total Akt [1, 17]: no influence
- expression of total GSK3β [1, 17]: no influence
- expression of β-catenin [1, 17]: no influence
- pGSK3βSer9 ([1]; SEM cells, after 4 h): small decrease; also recorded: slight decrease
- expression of p4EBP-1Ser65 [1, 18]: decrease
- expression of total 4EBP-1 [1, 18]: decrease
- pAktSer473 ([1]; SEM cells, incubation of 24 h): not confirmed by an increase; also recorded: not confirmed by a rise
- pAktThr308 ([1]; SEM cells, incubation of 24 h): slight increase
- expression of p4EBP-1Ser65 [2]: increased expression; also recorded: increase
- expression of p4EBP-1Ser65 [3]: decrease
- expression of total 4EBP-1 [3]: decrease
- expression of p4EBP-1Ser65 ([4]; incubation of 4 and 24 h): decrease
- expression of total 4EBP-1 ([4]; incubation of 4 and 24 h): decrease
- pAktSer473 ([4]; incubation of 24 h): not confirmed by a rise
- pAktThr308 ([4]; incubation of 24 h): increase
- inhibition of proliferation (SEM cells [5]; [19]): significant inhibition
- cell numbers (SEM cells [5]; [20]): decrease in cell numbers i.e. below the amount of seeded cells
- inhibition of proliferation (Molt-4 cells [6]; [19]): significant inhibition
- cell numbers (Molt-4 cells [6]; [20]): decrease in cell numbers i.e. below the amount of seeded cells
- inhibition of proliferation (Jurkat cells [7]; [19]): significant inhibition
- cell numbers (Jurkat cells [7]; [20]): decrease in cell numbers i.e. below the amount of seeded cells
- inhibition of proliferation (RS4;11 cells [8]; [19]): significant inhibition
- cell numbers (RS4;11 cells [8]; [20]): decrease in cell numbers i.e. below the amount of seeded cells
- IC50 (SEM cells [9]; Homo sapiens, SEM cells, 72 h of incubation): 410 nM
- metabolic activity compared to control cells treated with DMSO (SEM cells [9]; SEM, 0.5 μM PDA-66, 72 h, mean±SD): 35.7±8.3%
- metabolic activity compared to control cells treated with DMSO (Molt-4 cells [10]): 35.5±17%
- IC50 (Jurkat cells [11]; Homo sapiens, Jurkat cells, 72 h of incubation): 1280 nM
- metabolic activity compared to control cells treated with DMSO (Jurkat cells [11]; Jurkat, 0.5 μM PDA-66, 72 h, mean±SD): 66.7±8%
- metabolic activity compared to control cells treated with DMSO (RS4;11 cells [12]): 33.3±4.4%
- amount of cells in G0/G1 (SEM cells [13]; 0.5 μM PDA-66, 48 h, mean±SD): 69.3±2.7%
- effect on cell cycle (SEM cells [13]; 1 μM PDA-66, 48 h): did not affect the cell cycle significantly
- amount of cells in G0/G1 phase (Molt-4 cells [14]; 1 μM PDA-66, 48 h, mean±SD): 45.0±7.3%
- amount of cells in G2 phase (Molt-4 cells [14]; 1 μM PDA-66, 48 h, mean±SD): 41.0±5.8%
- cells in G0/G1 phase (Molt-4 cells [14]; smaller dosages than 1 μM): significant increase
- amount of cells in G0/G1 phase (Jurkat cells [15]): 47.3±4.3%
- amount of cells in S phase (Jurkat cells [15]): 20.0±1.1%
- amount of cells in G0/G1 phase (RS4;11 cells [16]; 1 μM PDA-66, 48 h, mean±SD): 47.3±2.7%
- amount of cells in G2 phase (RS4;11 cells [16]; 1 μM PDA-66, 48 h, mean±SD): 42.1±4.4%
- cells in G0/G1 phase (RS4;11 cells [16]; smaller dosages than 1 μM): significant increase
